# Assay results published in patent US8889732B2, “Fused heterocyclic compounds and thrombopoietin receptor activators” (Nissan Chemical Industries, Ltd., priority 2009, dated 2014).
# pEC50: −log10 of the molar value.
# Molecular target: T1, human thrombopoietin receptor (c-mpl) (Homo sapiens, UniProt P40238)
# T1 construct: expressed in transfected cells
# T1 sequence (P40238 26-635): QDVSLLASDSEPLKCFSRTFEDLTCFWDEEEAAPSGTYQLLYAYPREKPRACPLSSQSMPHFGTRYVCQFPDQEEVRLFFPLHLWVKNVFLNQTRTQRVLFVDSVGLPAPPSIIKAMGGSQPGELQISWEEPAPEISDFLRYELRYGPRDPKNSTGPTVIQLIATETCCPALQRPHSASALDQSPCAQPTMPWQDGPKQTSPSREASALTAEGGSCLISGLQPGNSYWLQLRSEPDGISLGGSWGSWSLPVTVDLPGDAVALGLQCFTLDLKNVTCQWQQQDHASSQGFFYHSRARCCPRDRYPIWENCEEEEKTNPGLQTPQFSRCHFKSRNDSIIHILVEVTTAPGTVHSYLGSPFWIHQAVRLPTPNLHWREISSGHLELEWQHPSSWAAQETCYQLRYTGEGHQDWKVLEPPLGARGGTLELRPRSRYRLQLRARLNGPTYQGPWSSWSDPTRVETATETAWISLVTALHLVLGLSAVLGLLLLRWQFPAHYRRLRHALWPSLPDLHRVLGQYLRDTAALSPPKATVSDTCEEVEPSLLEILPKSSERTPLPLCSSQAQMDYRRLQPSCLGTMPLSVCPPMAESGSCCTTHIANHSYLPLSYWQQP
# Assay: Stimulation of proliferation of thrombopoietin-dependent cell line UT7/EPO-mpl (WST-8)
# Format: cell-based
# Conditions: concentration yielding growth rate corresponding to 50% of growth of UT-7/EPO-mpl in the presence of 10 ng/mL TPO; 4 days incubation, WST-8
# Description: The responses of thrombopoietin receptor to the compounds of Synthetic Examples of the present invention were assayed using a human leukemic cell line, UT7/EPO-mpl.
# UT7/EPO-mpl is a stable transformed cell line obtained by introducing into human leukemic cell line UT7/EPO a vector that induces expression of human thrombopoietin receptor (c-mpl) under control of cytomegalovirus immediate-early promoter by the method of Takatoku et al. (J. Biol. Chem., 272:7259-7263 (1997)). […] These two cell lines were subcultured in IMDM (Invitrogen) containing 10% fetal bovine serum (Thermo Electron or BioWest) using a CO2 incubator (5% CO2, 37° C.).
# The subcultured cells described above were washed twice with PBS and suspended in IMDM containing 10% fetal bovine serum at a cell density of 6×10^4 cells/ml. The cell suspension was transferred to a 96-well tissue culture plate (CORNING) in 100-μl aliquots. Then either thrombopoietin (Pepro Tech EC) or the compound of Synthetic Examples dissolved in dimethyl sulfoxide were diluted 83-fold with IMDM containing 10% fetal bovine serum and added to the aforementioned cell suspension in 20-μl aliquots. The cell suspension was incubated in a CO2 incubator (5% CO2, 37° C.) for 4 days. Cell proliferation was assayed using WST-8 reagent (Kishida Chemical Co., Ltd.) according to instructions by the manufacturer. A 10-μl aliquot of 5 mM WST-8 reagent solution was added to each well of the tissue culture plate, and the plate was incubated at 37° C. for 4 hours. The formazan pigment generated was detected by measuring the absorbance at 450 nm with a 96-well microplate reader (Nihon Molecular Devices, Spectramax 190).
row,pEC50,Compound
1,8.81,C/C(=N\NC(=O)c1ccc(C(=O)NCc2ccncc2)s1)c1nn(C)c(-c2ccc3c(c2)CCC3)c1O [compound 1]
2,8.47,C/C(=N\NC(=O)c1ccc(C(=O)NCCc2ccncc2)s1)c1nn(C)c(-c2ccc3c(c2)CCC3)c1O [compound 2]
3,7.15,CCN(CC)C(=O)c1ccc(C(=O)N/N=C(\C)c2nn(C)c(-c3ccc4c(c3)CCC4)c2O)s1 [compound 3]
4,7.95,C/C(=N\NC(=O)c1ccc(C(=O)N2CCCC2)s1)c1nn(C)c(-c2ccc3c(c2)CCC3)c1O [compound 4]
5,7.93,COC(=O)c1ccc(C(=O)N/N=C(\C)c2nn(C)c(-c3ccc4c(c3)CCC4)c2O)cc1[N+](=O)[O-] [compound 5]
6,7.72,COC(=O)c1ccc(C(=O)N/N=C(\C)c2nn(C)c(-c3ccc4c(c3)CCC4)c2O)s1 [compound 6]
7,7.37,COC(=O)c1ccc(C(=O)N/N=C(\C)c2nn(C)c(-c3ccc4c(c3)CCC4)c2O)cc1 [compound 7]
8,7.00,COC(=O)C1CCN(C(=S)N/N=C(\C)c2nn(C)c(-c3ccc4c(c3)CCC4)c2O)CC1 [compound 8]
9,7.12,C/C(=N\NC(=S)N1CCC(C(=O)O)CC1)c1nn(C)c(-c2ccc3c(c2)CCC3)c1O [compound 9]
10,7.34,C/C(=N\NC(=O)c1ccc(C(=O)O)s1)c1nn(C)c(-c2ccc3c(c2)CCC3)c1O [compound 10]
11,7.24,C/C(=N\NC(=O)c1ccc(C(=O)O)cc1)c1nn(C)c(-c2ccc3c(c2)CCC3)c1O [compound 11]
12,8.76,C/C(=N\NC(=O)c1ccc(C(=O)O)c([N+](=O)[O-])c1)c1nn(C)c(-c2ccc3c(c2)CCC3)c1O [compound 12]
13,7.23,C/C(=N\NC(=S)Nc1ccc(C(=O)O)cc1)c1nn(C)c(-c2ccc3c(c2)CCC3)c1O [compound 13]
14,7.64,C/C(=N\NC(=S)Nc1cccc(C(=O)O)c1)c1nn(C)c(-c2ccc3c(c2)CCC3)c1O [compound 14]
15,7.89,C/C(=N\NC(=S)Nc1ccc(C(=O)O)c(Cl)c1)c1nn(C)c(-c2ccc3c(c2)CCC3)c1O [compound 15]
16,9.30,C/C(=N\NC(=O)c1ccc(C(=O)NCCc2ccncc2)s1)c1csc(-c2ccc3c(c2)CCCC3)c1O [compound 16]
17,7.31,C/C(=N\NC(=S)Nc1cccc(C(=O)O)c1)c1csc(-c2ccc3c(c2)CCCC3)c1O [compound 17]
18,8.27,C/C(=N\NC(=O)c1ccc(C(=O)NCc2ccncc2)s1)c1csc(-c2ccc3c(c2)CCO3)c1O [compound 18]
19,7.52,C/C(=N\NC(=O)c1ccc(C(=O)NCCc2ccncc2)s1)c1csc(-c2ccc3c(c2)CCO3)c1O [compound 19]
20,7.00,C/C(=N\NC(=O)c1ccc(C(=O)N2CCCC2)s1)c1csc(-c2ccc3c(c2)CCO3)c1O [compound 21]

row,pEC50,Compound
1,9.28,C/C(=N\NC(=O)c1ccc(C(=O)NCc2ccncc2)s1)c1csc(-c2ccc3c(c2)CCC3)c1O [compound 25]
2,9.06,C/C(=N\NC(=O)c1ccc(C(=O)NCCc2ccncc2)s1)c1csc(-c2ccc3c(c2)CCC3)c1O [compound 26]
3,8.19,CCN(CC)C(=O)c1ccc(C(=O)N/N=C(\C)c2csc(-c3ccc4c(c3)CCC4)c2O)s1 [compound 27]
4,8.23,C/C(=N\NC(=O)c1ccc(C(=O)N2CCCC2)s1)c1csc(-c2ccc3c(c2)CCC3)c1O [compound 28]
5,7.89,COC(=O)c1ccc(C(=O)N/N=C(\C)c2csc(-c3ccc4c(c3)CCC4)c2O)cc1[N+](=O)[O-] [compound 29]
6,7.72,COC(=O)c1ccc(C(=O)N/N=C(\C)c2csc(-c3ccc4c(c3)CCC4)c2O)s1 [compound 30]
7,7.28,COC(=O)c1ccc(C(=O)N/N=C(\C)c2csc(-c3ccc4c(c3)CCC4)c2O)cc1 [compound 31]
8,9.34,C/C(=N\NC(=O)c1ccc(C(=O)NCc2ccncc2)s1)c1csc(-c2ccc3c(c2)CCCC3)c1O [compound 32]
9,8.31,CCN(CC)C(=O)c1ccc(C(=O)N/N=C(\C)c2csc(-c3ccc4c(c3)CCCC4)c2O)s1 [compound 33]
10,8.61,C/C(=N\NC(=O)c1ccc(C(=O)N2CCCC2)s1)c1csc(-c2ccc3c(c2)CCCC3)c1O [compound 34]
11,8.02,COC(=O)c1ccc(C(=O)N/N=C(\C)c2csc(-c3ccc4c(c3)CCCC4)c2O)s1 [compound 36]
12,7.40,COC(=O)c1ccc(C(=O)N/N=C(\C)c2csc(-c3ccc4c(c3)CCCC4)c2O)cc1 [compound 37]
13,7.37,C/C(=N\NC(=S)Nc1ccc(C(=O)O)c(Cl)c1)c1csc(-c2ccc3c(c2)CCO3)c1O [compound 39]
14,7.28,COC(=O)C1CCN(C(=S)N/N=C(\C)c2csc(-c3ccc4c(c3)CCC4)c2O)CC1 [compound 40]
15,8.17,C/C(=N\NC(=S)Nc1ccc(C(=O)O)c(Cl)c1)c1csc(-c2ccc3c(c2)CCC3)c1O [compound 41]
16,7.31,COC(=O)C1CCN(C(=S)N/N=C(\C)c2csc(-c3ccc4c(c3)CCCC4)c2O)CC1 [compound 42]
17,8.32,C/C(=N\NC(=S)Nc1ccc(C(=O)O)c(Cl)c1)c1csc(-c2ccc3c(c2)CCCC3)c1O [compound 43]
18,7.02,C/C(=N\NC(=O)c1ccc(C(=O)O)cc1)c1csc(-c2ccc3c(c2)CCO3)c1O [compound 46]
19,7.25,C/C(=N\NC(=O)c1ccc(C(=O)O)c([N+](=O)[O-])c1)c1csc(-c2ccc3c(c2)CCO3)c1O [compound 47]
20,8.39,C/C(=N\NC(=S)N1CCC(C(=O)O)CC1)c1csc(-c2ccc3c(c2)CCC3)c1O [compound 48]

row,pEC50,Compound
1,8.48,C/C(=N\NC(=O)c1ccc(C(=O)O)s1)c1csc(-c2ccc3c(c2)CCC3)c1O [compound 49]
2,8.75,C/C(=N\NC(=O)c1ccc(C(=O)O)cc1)c1csc(-c2ccc3c(c2)CCC3)c1O [compound 50]
3,9.35,C/C(=N\NC(=O)c1ccc(C(=O)O)c([N+](=O)[O-])c1)c1csc(-c2ccc3c(c2)CCC3)c1O [compound 51]
4,8.43,C/C(=N\NC(=S)N1CCC(C(=O)O)CC1)c1csc(-c2ccc3c(c2)CCCC3)c1O [compound 52]
5,8.90,C/C(=N\NC(=O)c1ccc(C(=O)O)s1)c1csc(-c2ccc3c(c2)CCCC3)c1O [compound 53]
6,8.52,C/C(=N\NC(=O)c1ccc(C(=O)O)cc1)c1csc(-c2ccc3c(c2)CCCC3)c1O [compound 54]
7,9.40,C/C(=N\NC(=O)c1ccc(C(=O)O)c([N+](=O)[O-])c1)c1csc(-c2ccc3c(c2)CCCC3)c1O [compound 55]
8,7.24,C/C(=N\NC(=S)Nc1ccc(C(=O)O)cc1)c1csc(-c2ccc3c(c2)CCO3)c1O [compound 56]
9,8.24,C/C(=N\NC(=S)Nc1ccc(C(=O)O)cc1)c1csc(-c2ccc3c(c2)CCC3)c1O [compound 58]
10,7.27,C/C(=N\NC(=S)Nc1cccc(C(=O)O)c1)c1csc(-c2ccc3c(c2)CCC3)c1O [compound 59]
11,8.24,C/C(=N\NC(=S)Nc1ccc(C(=O)O)cc1)c1csc(-c2ccc3c(c2)CCCC3)c1O [compound 60]
12,8.39,C/C(=N\NC(=S)Nc1cccc(-c2nnn[nH]2)c1)c1csc(-c2ccc3c(c2)CCCC3)c1O [compound 61]
13,8.39,C/C(=N\NC(=S)Nc1ccc(-c2nnn[nH]2)cc1)c1csc(-c2ccc3c(c2)CCCC3)c1O [compound 62]
14,8.40,C/C(=N\NC(=S)Nc1cccc(-c2nnn[nH]2)c1)c1csc(-c2ccc3c(c2)CCC3)c1O [compound 63]
15,8.36,C/C(=N\NC(=S)Nc1ccc(-c2nnn[nH]2)cc1)c1csc(-c2ccc3c(c2)CCC3)c1O [compound 64]
16,8.25,C/C(=N\NC(=S)Nc1cccc(-c2nnn[nH]2)c1)c1csc(-c2ccc3c(c2)CCO3)c1O [compound 65]
17,8.06,C/C(=N\NC(=S)Nc1ccc(-c2nnn[nH]2)cc1)c1csc(-c2ccc3c(c2)CCO3)c1O [compound 66]
18,8.28,C/C(=N\NC(=O)c1ccc(-c2nnn[nH]2)cc1)c1csc(-c2ccc3c(c2)CCCC3)c1O [compound 67]
19,7.65,C/C(=N\NC(=O)c1ccc(-c2nnn[nH]2)cc1)c1csc(-c2ccc3c(c2)CCC3)c1O [compound 68]
